Where “and” joins values, the source holds several entries; their conditions need not be identical. Equal entries are not always repeated. Toxic doses and inconclusive results are not listed.
Tested on: CD2F1 mice, ip Colon 26 adenocarcinoma, median survival T/C
Assay: NCI In Vivo Anticancer Drug Screen. Data for tumor model Colon 26 Adenocarcinoma (intraperitoneal) in CD2F1 (CDF1) mice
Conditions: endpoint: median survival time, higher = longer survival
Procedure: The antitumor activity of compounds was measured in mice bearing transplantable tumors. Survival or tumor size were measured and the results are expressed as the measurement made in the treated group (T) divided by the measurement made in the vehicle treated control group (C). The tumor model used in this assay is Colon 26 Adenocarcinoma (intraperitoneal) in CD2F1 (CDF1) mice

[1] = dose: 25.0 mg/kg/injection, schedule: Q04DX003 (ip), vehicle: Klucel (hydroxypropylcellulose) (HPC)
[2] = dose: 50.0 mg/kg/injection, schedule: Q04DX003 (ip), vehicle: Klucel (hydroxypropylcellulose) (HPC)
[3] = dose: 100.0 mg/kg/injection, schedule: Q04DX003 (ip), vehicle: Klucel (hydroxypropylcellulose) (HPC)
[4] = dose: 25.0 mg/kg/injection, schedule: Q04DX003 (ip), vehicle: saline with Tween-80
[5] = dose: 50.0 mg/kg/injection, schedule: Q04DX003 (ip), vehicle: saline with Tween-80
[6] = dose: 100.0 mg/kg/injection, schedule: Q04DX003 (ip), vehicle: saline with Tween-80
[7] = dose: 200.0 mg/kg/injection, schedule: Q04DX003 (ip), vehicle: saline with Tween-80
[8] = dose: 400.0 mg/kg/injection, schedule: Q04DX003 (ip), vehicle: saline with Tween-80
[9] = dose: 6.25 mg/kg/injection, schedule: Q04DX003 (ip), vehicle: Klucel (hydroxypropylcellulose) (HPC)

C[C@]1(O)CC[C@H]2[C@@H]3CCC4=CC(=O)CC[C@]4(C)[C@@]3(F)[C@@H](O)C[C@@]21C
T/C [1]: 94 % of control
T/C [2]: 105 % of control
T/C [3]: 108 % of control
T/C (dose: 200.0 mg/kg/injection, schedule: Q04DX003 (ip), vehicle: Klucel (hydroxypropylcellulose) (HPC)): 99 % of control
T/C (dose: 400.0 mg/kg/injection, schedule: Q04DX003 (ip), vehicle: Klucel (hydroxypropylcellulose) (HPC)): 97 % of control

C=C(NC(=O)C(=C)NC(=O)c1csc(C2=NC3c4csc(n4)C4NC(=O)c5csc(n5)C(C(C)(O)C(C)O)NC(=O)C5CSC(=N5)/C(=C/C)NC(=O)C(C(C)O)NC(=O)c5csc(n5)C3(CC2)NC(=O)C(C)NC(=O)C(=C)NC(=O)C(C)NC(=O)C(C(C)CC)NC2C=Cc3c(C(C)O)cc(nc3C2O)C(=O)OC4C)n1)C(N)=O (centres undefined)
T/C (dose: 5.0 mg/kg/injection, schedule: Q04DX003 (ip), vehicle: Klucel (hydroxypropylcellulose) (HPC)): 120 % of control
T/C (dose: 10.0 mg/kg/injection, schedule: Q04DX003 (ip), vehicle: Klucel (hydroxypropylcellulose) (HPC)): 90 % of control
T/C (dose: 20.0 mg/kg/injection, schedule: Q04DX003 (ip), vehicle: Klucel (hydroxypropylcellulose) (HPC)): 100 % of control
T/C (dose: 40.0 mg/kg/injection, schedule: Q04DX003 (ip), vehicle: Klucel (hydroxypropylcellulose) (HPC)): 110 % of control
T/C (dose: 80.0 mg/kg/injection, schedule: Q04DX003 (ip), vehicle: Klucel (hydroxypropylcellulose) (HPC)): 102 % of control
T/C (dose: 160.0 mg/kg/injection, schedule: Q04DX003 (ip), vehicle: Klucel (hydroxypropylcellulose) (HPC)): 92 % of control

OC(CBr)C(O)C(O)C(O)CBr (centres undefined)
T/C [4]: 114 % of control
T/C [2]: 107 % of control
T/C [5]: 102 % of control
T/C [3]: 117 % of control
T/C [6]: 96 % of control
T/C [7]: 102 % of control
T/C [8]: 114 % of control
T/C (dose: 800.0 mg/kg/injection, schedule: Q04DX003 (ip), vehicle: Klucel (hydroxypropylcellulose) (HPC)): 163 % of control

CCOC(=O)Nc1cc2c(c(N)n1)N=C(CN(C)c1ccccc1)CN2
T/C [9]: 108 % of control
T/C [1]: 177 % of control
T/C [2]: 119 % of control

C=C(C)[C@]12CC(C)C34OC(/C=C\C=C\CCCCCCCCC)(O[C@@H]1[C@@H]3[C@@H]1O[C@]1(CO)[C@@H](O)[C@]1(O)C(=O)C(C)=C[C@@H]41)O2 (some centres undefined)
T/C (dose: 0.18 mg/kg/injection, schedule: Q04DX003 (ip), vehicle: distilled water + alcohol): 102 % of control
T/C (dose: 0.37 mg/kg/injection, schedule: Q04DX003 (ip), vehicle: distilled water + alcohol): 105 % of control
T/C (dose: 0.75 mg/kg/injection, schedule: Q04DX003 (ip), vehicle: distilled water + alcohol): 114 % of control

CCC(C)C(=O)O[C@H]1C(=O)O[C@@H]2C[C@H]3C(C)=CC(=O)[C@@H](O)[C@]3(C)[C@H]3[C@@H](O)[C@H](O)[C@@]4(C)OC[C@]32[C@@H]14 (some centres undefined)
T/C (dose: 0.5 mg/kg/injection, schedule: Q04DX002 (ip), vehicle: saline): 102 % of control
T/C (dose: 1.0 mg/kg/injection, schedule: Q04DX002 (ip), vehicle: saline): 98 % of control
T/C (dose: 2.0 mg/kg/injection, schedule: Q04DX002 (ip), vehicle: saline): 97 % of control

O=NN(CCCl)C(=O)NCCCl
T/C (dose: 4.0 mg/kg/injection, schedule: Q04DX003 (ip), vehicle: saline + alcohol): 168 % of control
T/C (dose: 8.0 mg/kg/injection, schedule: Q04DX003 (ip), vehicle: saline + alcohol): 250 % of control
T/C (dose: 16.0 mg/kg/injection, schedule: Q04DX003 (ip), vehicle: saline + alcohol): 335 % of control
T/C (dose: 20.0 mg/kg/injection, schedule: Q04DX003 (oral), vehicle: saline + alcohol): 161 % of control
T/C (dose: 33.0 mg/kg/injection, schedule: Q04DX003 (oral), vehicle: saline + alcohol): 255 % of control
T/C (dose: 53.0 mg/kg/injection, schedule: Q04DX003 (oral), vehicle: saline + alcohol): 289 % of control
T/C (dose: 85.0 mg/kg/injection, schedule: Q04DX003 (oral), vehicle: saline + alcohol): 285 % of control

Cc1ncc([N+](=O)[O-])n1CCSC(N)=O
T/C (dose: 12.5 mg/kg/injection, schedule: Q04DX003 (ip), vehicle: saline with Tween-80): 94 % of control
T/C [4]: 124 % of control and 96 % of control
T/C [5]: 89 % of control
T/C [6]: 105 % of control and 95 % of control
T/C [7]: 90 % of control and 94 % of control
T/C [8]: 96 % of control

C[C@]12CCC(=O)[C@@](C)(CO)[C@@H]1[C@H](O)C[C@H]1C[C@@H]3C[C@@]12CC[C@]3(O)CO
T/C (dose: 5.0 mg/kg/injection, schedule: Q04DX003 (ip), vehicle: saline with Tween-80): 98 % of control
T/C (dose: 10.0 mg/kg/injection, schedule: Q04DX003 (ip), vehicle: saline with Tween-80): 96 % of control
T/C (dose: 20.0 mg/kg/injection, schedule: Q04DX003 (ip), vehicle: saline with Tween-80): 90 % of control
T/C (dose: 40.0 mg/kg/injection, schedule: Q04DX003 (ip), vehicle: saline with Tween-80): 90 % of control
T/C (dose: 80.0 mg/kg/injection, schedule: Q04DX003 (ip), vehicle: saline with Tween-80): 100 % of control

CN(C)CCNc1ccc(NCCN(C)C)c2c1C(=O)c1ccccc1C2=O
T/C (dose: 5.0 mg/kg/injection, schedule: Q01DX009 (ip), vehicle: acid diluted with saline): 115 % of control and 119 % of control
T/C (dose: 10.0 mg/kg/injection, schedule: Q01DX009 (ip), vehicle: acid diluted with saline): 108 % of control and 123 % of control and 202 % of control
T/C (dose: 40.0 mg/kg/injection, schedule: Q01DX009 (ip), vehicle: acid diluted with saline): 104 % of control and 105 % of control

COc1ccc2c(c1O)-c1cccc3c1[C@@H](C2)N(CCCl)CC3
T/C (dose: 4.0 mg/kg/injection, schedule: Q04DX002 (ip), vehicle: Klucel (hydroxypropylcellulose) (HPC)): 107 % of control
T/C (dose: 8.0 mg/kg/injection, schedule: Q04DX002 (ip), vehicle: Klucel (hydroxypropylcellulose) (HPC)): 119 % of control
T/C (dose: 16.0 mg/kg/injection, schedule: Q04DX002 (ip), vehicle: Klucel (hydroxypropylcellulose) (HPC)): 108 % of control
T/C (dose: 32.0 mg/kg/injection, schedule: Q04DX002 (ip), vehicle: Klucel (hydroxypropylcellulose) (HPC)): 124 % of control

CCC(=O)O[C@H]1CC[C@H]2[C@@H]3CCC4=CC(=O)CC[C@]4(C)[C@H]3CC[C@]12C
T/C (dose: 80.0 mg/kg/injection, schedule: Q04DX003 (ip), vehicle: saline): 87 % of control
T/C (dose: 160.0 mg/kg/injection, schedule: Q04DX003 (ip), vehicle: saline): 96 % of control
T/C (dose: 640.0 mg/kg/injection, schedule: Q04DX003 (ip), vehicle: saline): 86 % of control

COc1ccc(CC2C(=O)NC(C)C(=O)N(C)C3Cc4ccc(cc4)Oc4cc(ccc4O)CC(C(=O)NC(C)C(=O)NC(C)C(=O)N2C)N(C)C3=O)cc1 (centres undefined)
T/C (dose: 0.5 mg/kg/injection, schedule: Q04DX003 (ip), vehicle: saline): 97 % of control
T/C (dose: 1.0 mg/kg/injection, schedule: Q04DX003 (ip), vehicle: saline): 98 % of control
T/C (dose: 2.0 mg/kg/injection, schedule: Q04DX003 (ip), vehicle: saline): 87 % of control
T/C (dose: 2.59 mg/kg/injection, schedule: Q04DX003 (ip), vehicle: other): 99 % of control
T/C (dose: 4.32 mg/kg/injection, schedule: Q04DX003 (ip), vehicle: other): 103 % of control
T/C (dose: 7.2 mg/kg/injection, schedule: Q04DX003 (ip), vehicle: other): 112 % of control
T/C (dose: 12.0 mg/kg/injection, schedule: Q04DX003 (ip), vehicle: other): 113 % of control

O=C(CCCN1CCC(O)(c2cccc(C(F)(F)F)c2)CC1)c1ccc(F)cc1
T/C (dose: 3.12 mg/kg/injection, schedule: Q04DX003 (ip), vehicle: Klucel (hydroxypropylcellulose) (HPC)): 94 % of control
T/C [9]: 95 % of control
T/C (dose: 12.5 mg/kg/injection, schedule: Q04DX003 (ip), vehicle: Klucel (hydroxypropylcellulose) (HPC)): 99 % of control
T/C [1]: 97 % of control
T/C [2]: 105 % of control

N/C(=N\O)c1cn(C2OC(CO)C(O)C2O)c2ncnc(N)c12 (centres undefined)
T/C (dose: 2.0 mg/kg/injection, schedule: Q04DX003 (ip), vehicle: Klucel (hydroxypropylcellulose) (HPC)): 116 % of control
T/C (dose: 16.0 mg/kg/injection, schedule: Q04DX003 (ip), vehicle: Klucel (hydroxypropylcellulose) (HPC)): 167 % of control

CCCCNC(C)[C@]1(O)Cc2c(O)c3c(c(O)c2[C@@H](OC2CC(N)C(O)C(C)O2)C1)C(=O)c1c(OC)cccc1C3=O (some centres undefined)
T/C (dose: 23.0 mg/kg/injection, schedule: Q07DX002 (iv), vehicle: saline): 110 % of control
T/C (dose: 35.0 mg/kg/injection, schedule: Q07DX002 (iv), vehicle: saline): 122 % of control
T/C (dose: 54.0 mg/kg/injection, schedule: Q07DX002 (iv), vehicle: saline): 110 % of control
T/C (dose: 84.0 mg/kg/injection, schedule: Q07DX002 (iv), vehicle: saline): 113 % of control

From PubChem BioAssay AID210 (DTP/NCI, 2004)
